Measured values: PubChem BioAssay (NCI)
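How tested: cells in 96-well plates exposed to compound for 48 hours at five concentrations. Here, GI50 denotes the concentration required for 50% inhibition of growth. TGI: total growth inhibition.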

Legend:
Experiment in all cases: NCI-60 cell line screen, 48 h
M14 melanoma = tested on: M14 melanoma
NCI-H460 lung = tested on: NCI-H460 lung
OVCAR-3 ovarian = tested on: OVCAR-3 ovarian
CCRF-CEM leukemia = tested on: CCRF-CEM leukemia
SF-268 CNS = tested on: SF-268 CNS
LOX IMVI melanoma = tested on: LOX IMVI melanoma
SF-539 CNS = tested on: SF-539 CNS
DU-145 prostate = tested on: DU-145 prostate
MOLT-4 leukemia = tested on: MOLT-4 leukemia
EKVX NSCLC = tested on: EKVX NSCLC
SK-OV-3 ovarian = tested on: SK-OV-3 ovarian
K-562 leukemia = tested on: K-562 leukemia
U251 CNS = tested on: U251 CNS
MDA-MB-435 = tested on: MDA-MB-435
MDA-MB-231 breast = tested on: MDA-MB-231 breast
HCT-116 colon = tested on: HCT-116 colon
SW-620 colon = tested on: SW-620 colon
IGROV1 ovarian = tested on: IGROV1 ovarian
BT-549 breast = tested on: BT-549 breast
MCF7 breast = tested on: MCF7 breast
TK-10 renal = tested on: TK-10 renal
NCI-H226 lung = tested on: NCI-H226 lung
SNB-19 CNS = tested on: SNB-19 CNS
UACC-257 melanoma = tested on: UACC-257 melanoma
RPMI-8226 leukemia = tested on: RPMI-8226 leukemia
SR leukemia = tested on: SR leukemia
HCT-15 colon = tested on: HCT-15 colon
CAKI-1 renal = tested on: CAKI-1 renal
SK-MEL-2 melanoma = tested on: SK-MEL-2 melanoma
OVCAR-5 ovarian = tested on: OVCAR-5 ovarian
HL-60(TB) leukemia = tested on: HL-60(TB) leukemia
HCC-2998 colon = tested on: HCC-2998 colon
HOP-92 NSCLC = tested on: HOP-92 NSCLC
SN12C renal = tested on: SN12C renal
T-47D breast = tested on: T-47D breast
OVCAR-8 ovarian = tested on: OVCAR-8 ovarian
SK-MEL-28 melanoma = tested on: SK-MEL-28 melanoma
UACC-62 melanoma = tested on: UACC-62 melanoma
COLO 205 colon = tested on: COLO 205 colon
MALME-3M melanoma = tested on: MALME-3M melanoma
786-0 renal = tested on: 786-0 renal
A498 renal = tested on: A498 renal
ACHN renal = tested on: ACHN renal
RXF 393 renal = tested on: RXF 393 renal
SK-MEL-5 melanoma = tested on: SK-MEL-5 melanoma
PC-3 prostate = tested on: PC-3 prostate
OVCAR-4 ovarian = tested on: OVCAR-4 ovarian
HT29 colon = tested on: HT29 colon
KM12 colon = tested on: KM12 colon
SF-295 CNS = tested on: SF-295 CNS
UO-31 renal = tested on: UO-31 renal
NCI/ADR-RES ovarian = tested on: NCI/ADR-RES ovarian
HOP-62 NSCLC = tested on: HOP-62 NSCLC
SNB-75 CNS = tested on: SNB-75 CNS
NCI-H522 lung = tested on: NCI-H522 lung
HS 578T breast = tested on: HS 578T breast
A549 NSCLC = tested on: A549 NSCLC

CN(C)CCCOc1c2ccc(Cl)cc2nc2c1oc1ccccc12
GI50 (M14 melanoma): 1500 nM
TGI (M14 melanoma): 3130 nM
GI50 (NCI-H460 lung): 557 nM
TGI (NCI-H460 lung): 10200 nM
GI50 (OVCAR-3 ovarian): 2620 nM
TGI (OVCAR-3 ovarian): 12700 nM
GI50 (CCRF-CEM leukemia): 2100 nM
TGI (CCRF-CEM leukemia): 11100 nM
GI50 (SF-268 CNS): 1620 nM
TGI (SF-268 CNS): 11200 nM
GI50 (LOX IMVI melanoma): 516 nM
TGI (LOX IMVI melanoma): 1830 nM
GI50 (SF-539 CNS): 1430 nM
TGI (SF-539 CNS): 2840 nM
GI50 (DU-145 prostate): 2260 nM
TGI (DU-145 prostate): 14000 nM
GI50 (MOLT-4 leukemia): 497 nM
TGI (MOLT-4 leukemia): 10500 nM
GI50 (EKVX NSCLC): 2640 nM
TGI (EKVX NSCLC): 10300 nM
GI50 (SK-OV-3 ovarian): 2420 nM
TGI (SK-OV-3 ovarian): 9550 nM
GI50 (K-562 leukemia): 620 nM
TGI (K-562 leukemia): 13900 nM
GI50 (U251 CNS): 1660 nM
TGI (U251 CNS): 10700 nM
GI50 (MDA-MB-435): 1550 nM
TGI (MDA-MB-435): 3090 nM
GI50 (MDA-MB-231 breast): 1800 nM
TGI (MDA-MB-231 breast): 8490 nM
GI50 (HCT-116 colon): 437 nM
TGI (HCT-116 colon): 10100 nM
GI50 (SW-620 colon): 535 nM
TGI (SW-620 colon): 8310 nM
GI50 (IGROV1 ovarian): 2140 nM
TGI (IGROV1 ovarian): 12000 nM
GI50 (BT-549 breast): 2080 nM
TGI (BT-549 breast): 7230 nM
GI50 (MCF7 breast): 1170 nM
TGI (MCF7 breast): 5480 nM
GI50 (TK-10 renal): 2960 nM
TGI (TK-10 renal): 7620 nM
GI50 (NCI-H226 lung): 2140 nM
TGI (NCI-H226 lung): 6770 nM
GI50 (SNB-19 CNS): 2370 nM
TGI (SNB-19 CNS): 11900 nM
GI50 (UACC-257 melanoma): 1850 nM
TGI (UACC-257 melanoma): 3790 nM
GI50 (RPMI-8226 leukemia): 2070 nM
TGI (RPMI-8226 leukemia): 7520 nM
GI50 (SR leukemia): 697 nM
TGI (SR leukemia): 6720 nM
GI50 (HCT-15 colon): 1070 nM
TGI (HCT-15 colon): 10100 nM
GI50 (CAKI-1 renal): 888 nM
TGI (CAKI-1 renal): 10400 nM
GI50 (SK-MEL-2 melanoma): 1860 nM
TGI (SK-MEL-2 melanoma): 3530 nM
GI50 (OVCAR-5 ovarian): 2090 nM
TGI (OVCAR-5 ovarian): 8040 nM
GI50 (HL-60(TB) leukemia): 1830 nM
TGI (HL-60(TB) leukemia): 5880 nM
GI50 (HCC-2998 colon): 1030 nM
TGI (HCC-2998 colon): 2530 nM
GI50 (HOP-92 NSCLC): 584 nM
TGI (HOP-92 NSCLC): 3590 nM
GI50 (SN12C renal): 1020 nM
TGI (SN12C renal): 11200 nM
GI50 (T-47D breast): 2640 nM
TGI (T-47D breast): 9870 nM
GI50 (OVCAR-8 ovarian): 1370 nM
TGI (OVCAR-8 ovarian): 10900 nM
GI50 (SK-MEL-28 melanoma): 1810 nM
TGI (SK-MEL-28 melanoma): 3430 nM
GI50 (UACC-62 melanoma): 1750 nM
TGI (UACC-62 melanoma): 3610 nM
GI50 (COLO 205 colon): 1080 nM
TGI (COLO 205 colon): 2520 nM
GI50 (MALME-3M melanoma): 1730 nM
TGI (MALME-3M melanoma): 3820 nM
GI50 (786-0 renal): 1780 nM
TGI (786-0 renal): 11200 nM
GI50 (A498 renal): 3140 nM
TGI (A498 renal): 8920 nM
GI50 (ACHN renal): 623 nM
TGI (ACHN renal): 12500 nM
GI50 (RXF 393 renal): 1370 nM
TGI (RXF 393 renal): 3710 nM
GI50 (SK-MEL-5 melanoma): 1780 nM
TGI (SK-MEL-5 melanoma): 3210 nM
GI50 (PC-3 prostate): 1710 nM
TGI (PC-3 prostate): 5410 nM
GI50 (OVCAR-4 ovarian): 1750 nM
TGI (OVCAR-4 ovarian): 7310 nM
GI50 (HT29 colon): 713 nM
TGI (HT29 colon): 3000 nM
GI50 (KM12 colon): 1870 nM
TGI (KM12 colon): 11900 nM
GI50 (SF-295 CNS): 2180 nM
TGI (SF-295 CNS): 10800 nM
GI50 (UO-31 renal): 553 nM
TGI (UO-31 renal): 3370 nM
GI50 (NCI/ADR-RES ovarian): 677 nM
TGI (NCI/ADR-RES ovarian): 6650 nM
GI50 (HOP-62 NSCLC): 2090 nM
TGI (HOP-62 NSCLC): 11600 nM
GI50 (SNB-75 CNS): 1480 nM
TGI (SNB-75 CNS): 2850 nM
GI50 (NCI-H522 lung): 1570 nM
TGI (NCI-H522 lung): 4610 nM
GI50 (HS 578T breast): 2150 nM
TGI (HS 578T breast): 10100 nM
GI50 (A549 NSCLC): 1550 nM
TGI (A549 NSCLC): 11200 nM
